These results are taken from US20250122221A1 (NANJING ZAIMING PHARMACEUTICAL CO., LTD., priority 2022, published 2025).

A value given as a limit tells only on which side of the number the result lay.

The target of this experiment is N-terminal active peptide segment (MI-N899) of POLQ with ATPase activity (Homo sapiens (Human), UniProt O75417). The experiment is described as follows: POLQ enzyme activity inhibition experiment (ATPase, NADH-coupled, OD 340 nm). Type of experiment: biochemical. The settings on record: 100 nM POLQ (N), 100 μM ATP, 300 nM dT50. As for the experimental part: The Envision microplate reader from Perkin Elmer Inc was used to measure the reduction of OD value of NADH at 340 nm, thus reflecting the enzyme activity. Experimental method: The POLQ enzyme was diluted to 100 nM with a reaction buffer (20 mM Tris HCl (pH 7.80), 80 mM KCl, 10 mM MgCl2, 1 mM DTT, 0.01% w/v bovine serum albumin, 0.01% v/v Tween-20, and 5% v/v glycerol). The compounds to be tested were diluted to different concentrations in dimethyl sulfoxide (DMSO) using the Echo 650 pipetting system, and transferred to a 384-well plate, 20 μL/well of 100 nM POLQ was added, and the mixture was incubated at room temperature for 15 minutes. A reaction mixture solution was formulated, and the concentration of each component in the reaction mixture solution was: 100 μM ATP, 300 nM […], 300 μM NADH, 6 mM PEP, 10 U/mL lactate dehydrogenase and 20 U/mL pyruvate kinase. 20 μL/well of reaction mixture solution was added to start the enzyme reaction. […] The concentration range was from 10 μM to 0.0005 μM, and the final concentration of DMSO in the system was 0.2% v/v. The 384-well plate was reacted at room temperature for 20 minutes, and then the OD value at 340 nm was read with an Envision microplate reader. The inhibition rate was calculated, and XLfit software was used to perform fitting to obtain IC50 of the compounds. In the experiment, a blank group and a DMSO group were set up, respectively.
N-terminal active peptide segment (MI-N899) of POLQ with ATPase activity, sequence (O75417 1-899 limits assumed): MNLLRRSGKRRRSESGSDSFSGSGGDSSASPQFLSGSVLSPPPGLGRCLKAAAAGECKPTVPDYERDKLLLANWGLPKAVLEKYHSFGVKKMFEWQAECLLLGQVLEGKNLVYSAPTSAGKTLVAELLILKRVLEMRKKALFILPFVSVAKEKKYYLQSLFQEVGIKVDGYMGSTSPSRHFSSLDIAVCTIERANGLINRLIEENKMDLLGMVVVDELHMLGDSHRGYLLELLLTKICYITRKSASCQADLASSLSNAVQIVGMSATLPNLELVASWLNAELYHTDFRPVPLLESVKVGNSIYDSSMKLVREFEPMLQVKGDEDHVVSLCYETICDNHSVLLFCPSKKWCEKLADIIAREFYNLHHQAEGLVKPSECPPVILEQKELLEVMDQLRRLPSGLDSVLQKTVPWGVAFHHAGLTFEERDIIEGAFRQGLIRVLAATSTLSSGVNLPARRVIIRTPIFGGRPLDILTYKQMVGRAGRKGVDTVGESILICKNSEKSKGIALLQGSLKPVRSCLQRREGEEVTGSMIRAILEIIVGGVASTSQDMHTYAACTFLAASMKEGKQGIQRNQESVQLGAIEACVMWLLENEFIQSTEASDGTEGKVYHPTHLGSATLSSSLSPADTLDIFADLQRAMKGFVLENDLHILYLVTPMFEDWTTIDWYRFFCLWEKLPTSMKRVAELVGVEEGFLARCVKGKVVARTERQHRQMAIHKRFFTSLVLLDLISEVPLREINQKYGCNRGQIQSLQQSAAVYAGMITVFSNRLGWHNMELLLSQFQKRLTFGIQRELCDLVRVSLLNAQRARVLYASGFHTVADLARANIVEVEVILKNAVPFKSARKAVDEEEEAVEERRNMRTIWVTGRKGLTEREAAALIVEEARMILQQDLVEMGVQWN
In turn, `COc1ccccc1-c1cnccc1C(=O)Nc1nc2ncc(-c3ccc(Cl)cc3)nc2s1` [Compound 2, N-(6-(4-chlorophenyl)thiazolo[4,5-b]pyrazin-2-yl)-3-(2-methoxyphenyl)pyridine-4-carboxamide] gave an IC50 of under 100 nM.
Regarding `COc1ccccc1-c1ccccc1C(=O)Nc1nc2ncc(-c3ccc(C#N)cc3)nc2s1` [Compound 55, N-(6-(4-cyanophenyl)thiazolo[4,5-b]pyrazin-2-yl)-2′-methoxy-[1,1′-biphenyl]-2-carboxamide], the half-inhibitory concentration (IC50) was under 100 nM.
The result for `COc1ccccc1-c1cnccc1C(=O)Nc1nc2ncc(-c3ccc(C#N)c(F)c3)nc2s1` [Compound 12, N-(6-(4-cyano-3-fluorophenyl)thiazolo[4,5-b]pyrazin-2-yl)-3-(2-methoxyphenyl)isonicotinamide] reads under 100 nM; that for `Cc1cc(-c2cc(Cl)ccc2OC(F)F)c(C(=O)Nc2nc3ncc(-c4ccc(C#N)cc4)nc3s2)cn1` [Compound 89, 4-(5-chloro-2-(difluoromethoxy)phenyl)-N-(6-(4-cyanophenyl)thiazolo[4,5-b]pyrazin-2-yl)-6-methylpyridine-3-carboxamide], under 100 nM.
`COc1ccccc1-c1cc(C#N)ncc1C(=O)Nc1nc2ncc(-c3ccc(Cl)cc3)nc2s1` [Compound 28, N-(6-(4-chlorophenyl)thiazolo[4,5-b]pyrazin-2-yl)-6-cyano-4-(2-methoxyphenyl)pyridine-3-carboxamide] gave an IC50 of under 100 nM.
`COc1ncccc1-c1cc(C)ncc1C(=O)Nc1nc2ncc(-c3ccc(C#N)cc3)nc2s1` [Compound 44, N-(6-(4-cyanophenyl)thiazolo[4,5-b]pyrazin-2-yl)-2-methoxy-6′-methyl-[3,4′-bipyridine]-3′-carboxamide]: the IC50 was under 100 nM.
The figure for `COc1cnc(C)cc1-c1cc(C)ncc1C(=O)Nc1nc2ncc(-c3ccc(Cl)cc3)nc2s1` [Compound 67, N-(6-(4-chlorophenyl)thiazolo[4,5-b]pyrazin-2-yl)-5′-methoxy-2′,6-dimethyl-[4,4′-bipyridine]-3-carboxamide] is under 100 nM; for `COc1ccccc1-c1cnccc1C(=O)Nc1nc2ccc(-c3ccc(Cl)cc3)nc2s1` [Compound 1, N-(5-(4-chlorophenyl)thiazolo[5,4-b]pyridin-2-yl)-3-(2-methoxyphenyl)pyridine-4-carboxamide] it is 100 to 500 nM.
The result for `COc1cnc(C)cc1-c1cc(C)ncc1C(=O)Nc1nc2ncc(C3CCOC3)nc2s1` (stereo not shown) [Compound 69-P1, N-(6-(tetrahydrofuran-3-yl)thiazolo[4,5-b]pyrazin-2-yl)-5′-methoxy-2′,6-dimethyl-[4,4′-bipyridine]-3-carboxamide] reads under 100 nM; that for `C#Cc1ccccc1-c1cnccc1C(=O)Nc1nc2ncc(-c3ccc(Cl)cc3)nc2s1` [Compound 29, N-(6-(4-chlorophenyl)thiazolo[4,5-b]pyrazin-2-yl)-3-(2-ethynylphenyl)pyridine-4-carboxamide], under 100 nM; that for `C#Cc1ccccc1-c1cc(Cl)ncc1C(=O)Nc1nc2ncc(-c3ccc(C#N)cc3)nc2s1` [Compound 43, 6-chloro-N-(6-(4-cyanophenyl)thiazolo[4,5-b]pyrazin-2-yl)-4-(2-ethynylphenyl)pyridine-3-carboxamide], under 100 nM.
The figure for `COc1cccc(F)c1-c1cc(C#N)ncc1C(=O)Nc1nc2ncc(-c3ccc(Cl)cc3)nc2s1` [Compound 17, N-(6-(4-chlorophenyl)thiazolo[4,5-b]pyrazin-2-yl)-6-cyano-4-(2-fluoro-6-methoxyphenyl)nicotinamide] is under 100 nM.
For `Cc1cc(-c2cc(Cl)ccc2OC(F)(F)F)c(C(=O)Nc2nc3ncc(-c4ccc(C#N)cc4)nc3s2)cn1` [Compound 90, 4-(5-chloro-2-(trifluoromethoxy)phenyl)-N-(6-(4-cyanophenyl)thiazolo[4,5-b]pyrazin-2-yl)-6-methylpyridine-3-carboxamide], the IC50 was under 100 nM.
The figure for `COc1ccccc1-c1cnccc1C(=O)Nc1nc2ncc(-c3ccc(C)cc3)nc2s1` [Compound 6, 3-(2-methoxyphenyl)-N-(6-(4-methylphenyl)thiazolo[4,5-b]pyrazin-2-yl)pyridine-4-carboxamide] is under 100 nM.
`C#Cc1ccccc1-c1nc(C)ncc1C(=O)Nc1nc2ncc(-c3ccc(C#N)cc3)nc2s1` [Compound 59, N-(6-(4-cyanophenyl)thiazolo[4,5-b]pyrazin-2-yl)-4-(2-ethynylphenyl)-2-methylpyrimidine-5-carboxamide] gave an IC50 of under 100 nM.
The result for `COc1ccccc1-c1cncnc1C(=O)Nc1nc2ncc(-c3ccc(C#N)cc3)nc2s1` [Compound 52, N-(6-(4-cyanophenyl)thiazolo[4,5-b]pyrazin-2-yl)-5-(2-methoxyphenyl)pyrimidine-4-carboxamide] reads under 100 nM; that for `COc1cnc(C#N)cc1-c1cc(C)ncc1C(=O)Nc1nc2ncc(-c3ccc(Cl)cn3)nc2s1` [Compound 65, N-(6-(5-chloropyridin-2-yl)thiazolo[4,5-b]pyrazin-2-yl)-2′-cyano-5′-methoxy-6-methyl-[4,4′-bipyridine]-3-carboxamide], under 100 nM.
The result for `COc1ccccc1-c1cc(C)ncc1C(=O)Nc1nc2ncc(-c3ccc(Cl)cc3)nc2s1` [Compound 4] reads under 100 nM; that for `COc1ccccc1-c1cnc(C(F)(F)F)cc1C(=O)Nc1nc2ncc(-c3ccc(C#N)cc3)nc2s1` [Compound 53, N-(6-(4-cyanophenyl)thiazolo[4,5-b]pyrazin-2-yl)-5-(2-methoxyphenyl)-2-(trifluoromethyl)pyridine-4-carboxamide], 100 to 500 nM.
`COc1cc(C#N)ccc1-c1cnccc1C(=O)Nc1nc2ncc(-c3ccc(C#N)cc3)nc2s1` [Compound 40, 3-(4-cyano-2-methoxyphenyl)-N-(6-(4-cyanophenyl)thiazolo[4,5-b]pyrazin-2-yl)pyridine-4-carboxamide] showed an IC50 of under 100 nM.
`COc1ccc(Cl)cc1-c1cc(C)ncc1C(=O)Nc1nc2ncc(-c3ccc(Cl)cn3)nc2s1` [Compound 71, 4-(5-chloro-2-methoxyphenyl)-N-(6-(5-chloropyridin-2-yl)thiazolo[4,5-b]pyrazin-2-yl)-6-methylpyridine-3-carboxamide] showed an IC50 of under 100 nM.
`COc1ccc(-c2cnc3nc(NC(=O)c4ccncc4-c4ccccc4OC)sc3n2)cc1` [Compound 7, 3-(2-methoxyphenyl)-N-(6-(4-methoxyphenyl)thiazolo[4,5-b]pyrazin-2-yl)pyridine-4-carboxamide] displayed an IC50 of under 100 nM.
The result for `COc1ccccc1-c1cnccc1C(=O)Nc1nc2ncc(-c3ccc(C#N)cc3F)nc2s1` [Compound 13, N-(6-(4-cyano-2-fluorophenyl)thiazolo[4,5-b]pyrazin-2-yl)-3-(2-methoxyphenyl)isonicotinamide] reads under 100 nM.
The result for `COc1ccccc1-c1cncc(F)c1C(=O)Nc1nc2ncc(-c3ccc(C#N)cc3)nc2s1` [Compound 54, N-(6-(4-cyanophenyl)thiazolo[4,5-b]pyrazin-2-yl)-3-fluoro-5-(2-methoxyphenyl)pyridine-4-carboxamide] reads under 100 nM.
`COc1cnccc1-c1cc(C)ncc1C(=O)Nc1nc2ncc(-c3ccc(C#N)cc3)nc2s1` [Compound 45, N-(6-(4-cyanophenyl)thiazolo[4,5-b]pyrazin-2-yl)-3′-methoxy-6-methyl-[4,4′-bipyridine]-3-carboxamide] had an IC50 of under 100 nM.

By IC50 is commonly meant the midpoint of a concentration-inhibition curve.
